The numbers were not newly measured in article PMC9694494, “Resveratrol/Hydrazone Hybrids: Synthesis and Chemopreventive Activity against Colorectal Cancer Cells” (Pharmaceutics, 2022), which cites them from elsewhere.

The test system of one series is EC109 cells. On the set-up: method as in PMID 29475156. The following applies: EC109 esophageal carcinoma cells; read-out: IC50 antiproliferative activity; cited from earlier work.
The test system of another series is EC9706 cells. On the set-up: method as in PMID 29475156. The following applies: EC9706 esophageal carcinoma cells; read-out: IC50 antiproliferative activity; cited from earlier work.

For the compound `CCOc1cccc(/C=N/NC(=O)c2cccc(S(=O)(=O)N3CCOCC3)c2)c1O` [I], the values for the IC50 in the series with EC109 cells and in the series on EC9706 cells were 2790 ± 450 nM and 1090 ± 30 nM, respectively.
